Laboratory results as given in US9266902B2, “Labelling reagents having a pyridine nucleus bearing a diazomethyl function, process for synthesis of such reagents and processes for detection of biological molecules” (priority 2008, dated 2016).

What was measured:
[1] = test system: RNA amplicon (NASBA), 16S RNA of Mycobacterium tuberculosis; conditions: label 2.5 mM, hybridisation at 45° C. up to 24 hrs
Procedure: The solution is mixed by vortex then incubated for 10 minutes at 65° C.
The labelled nucleic acids were purified on a QiaQuick (PCR purification kit, Qiagen) column using the purification protocol recommended by the manufacturer. The elution volume is 100 μL.
After purification, the labelled nucleic acids are transferred into 400 of hybridisation buffer. The samples are hybridised on the DNA chips designed for the analysis of the “GenBank” M20940 sequence of the 16S RNA of Mycobacterium tuberculosis. […] The hybridisation stages were performed by injecting. 80 μL of the hybridisation mixture into the chip then maintaining this in a hybridisation oven at 45° C. for 0.5 hour, 2 hours, 6.5 hours or 24 hours.
300 μL of pure water; 300 μL of 100 mM Tris buffer pH 7/1 M NaCl/0.05% Tween 20/0.005% antifoamant; 6 μL of BSA (50 mg/mL); 6 μL of SA-PE (300 μg/mL).
The reading of the fluorescence emitted at the surface of the DNA chip after labelling and hybridisation and the generation of data in terms of signal intensity and percentage homology are performed with the reading systems and software supplied by Affymetrix. The reading system supplies signal and background noise intensities expressed in rfu (“relative fluorescence unit”). The percentage homology is given relative to a reference sequence which in this case is the sequence of Mycobacterium tuberculosis.

[2] = test system: RNA amplicon (NASBA), 16S RNA of Mycobacterium tuberculosis; test: Labelling of RNA amplicon without interim purification, detection by hybridisation on DNA chip; conditions: label 2 mM, 3 mM HCl, no purification
Procedure: In a 1 mL tube, the following are mixed: • 5 μL of 8 mM label solution (96/4 DMSO/Methanol).
The nucleic acids thus labelled are not purified, but are hybridised directly.
The labelled nucleic acids are transferred without purification into 480 μL of hybridisation buffer. The samples are hybridised on the DNA chips in the same way as for the previous example.

[3] = Stability in the dry form at +4° C. after lyophilisation (HPLC purity over time); conditions: 250 mM in 10 mM Tris HCl pH 7.5 and 10% trehalose, lyophilised one night
[4] = Stability in a liquid medium at ambient temperature (HPLC purity over time); assay type: physicochemical; conditions: 125 mM in 96/4 DMSO/methanol, ambient temperature (22° C.), at 10 days

Substance | stability of labelled amplicons in the course of hybridisation [1] | background noise compared to BBP [2] | percentage homology [2] | specific signals (specific hybridisation) compared to BBP [2] | stability to lyophilisation [3] | purity of the initial compound [4] [%]
Pyridine Diazo Biotin [PyDB] | perfectly stable | reduced background noise | higher | improved | perfectly stable | 
[Bio-EG3]2-PDAM [BBP, reference compound] |  |  | relatively low |  |  | < 10
